Patent US7504382B2 (priority 2003, dated 2009)
Values after ≈ are worked out from the molar mass of the structure shown. Square brackets hold non-standard residues; d marks the D form. Peptide text beside a SMILES is read from it. * marks the point of attachment. ξ: configuration not given here. ξE = NC(CCC(=O)O)C(=O)O; Cbz = O=C(OCc1ccccc1)*; CH2F = FC*

Assays:
[1] = tested on: SARS-CoV infected Vero-cells; type: cell-based; details: concentration of 1 μM
[2] = tested on: SARS-CoV infected Vero 76 cells; type: cell-based; details: for EC50 (protection from virus-induced cell death): SARS-CoV infected Vero 76 cells, 72 h, neutral red; for SI value: from TC50 and EC50, indication of potential therapeutical index

SMILES: CNC(=O)CCC(NC(=O)[C@H](CC(C)C)NC(=O)OCc1ccccc1)C(=O)CF (stereo partly drawn) [Example 12, 4-(Cbz-Leu-Amido)-6-Fluoro-5-Oxo-Hexanoic Acid Methylamide] (Cbz-Leu-[ξE](NHMe)-CH2F)
- inhibition of the cytopathic effect (CPE) of SARS-CoV [1]: 100%
- toxicity at the same concentration (Vero-cells): no toxicity was observed

SMILES: CC(C)CC(NC(=O)C(NC(=O)OCc1ccccc1)C(C)C)C(=O)NC(CCC(=O)N(C)C)C(=O)CF (stereo not drawn) [Example 7, 4-(Cbz-Val-Leu-Amido)-6-Fluoro-5-Oxo-Hexanoic Acid Dimethylamide] (Cbz-Val-Leu-Glu(NMe2)-CH2F; configuration not given here)
- inhibition of the cytopathic effect (CPE) of SARS-CoV [1]: 94.5%
- toxicity at the same concentration (Vero-cells): no toxicity was observed

SMILES: CC(C)[C@H](NC(=O)OCc1ccccc1)C(=O)NC(CCC(=O)N(C)C)C(=O)CF (stereo partly drawn) [Example 24, 4-(Cbz-Val-Amido)-6-Fluoro-5-Oxo-Hexanoic Acid Dimethylamide] (Cbz-Val-[ξE](NMe2)-CH2F)
- TC50 (toxicity of the compound) (uninfected Vero 76 cells): > 10 µg/mL
- EC50 (protection from virus-induced cell death) [2]: 0.02 µg/mL (≈ 0.0472 µM)
- SI value [2]: > 500
- inhibition of the cytopathic effect (CPE) of SARS-CoV [1]: 100%
- toxicity at the same concentration (Vero-cells): no toxicity was observed

SMILES: CC(C)[C@H](NC(=O)OCc1ccccc1)C(=O)NC(CC(=O)N(C)C)C(=O)CF (stereo partly drawn) [Example 17, 3-(Cbz-Val-Amido)-5-Fluoro-4-Oxo-Pentanoic Acid Dimethylamide]
- TC50 (toxicity of the compound) (uninfected Vero 76 cells): > 50 µg/mL
- EC50 (protection from virus-induced cell death) [2]: 2.1 µg/mL (≈ 5.13 µM)
- SI value [2]: > 24
